# Read-outs that look alike come from different tables or passages of the source.
# Test system: smooth muscle cells (SMC)
# Experiment: anti-proliferation assay (perlecan)
# Type: cell-based
# Settings: for activity in anti-proliferation assay (Perlecan), in words: using the same activity scale used in Table 3; for IC50: anti-proliferation assay (perlecan)
# Protocol: The activity scale used in Table 3 as follows (numbers are inclusive): “+++” represents IC50 of less than about 3 μM; “++” represents IC50 of between about 3 and about 7 μM; and “+” represents IC50 of greater than about 7 μM. In addition, compounds, to include compositions thereof, encompassed within the scope of structures Ia-XXIVa, respectively, or listed in Tables 1A and 1E may be likewise employed in this embodiment and/or aspect of the present invention. Further, any hydrogen atoms that are required for any atom to attain its usual valence in a structure presented in Table 3, whether a carbon atom or a heteroatom, should be inferred if it is not specifically indicated.
# In addition to the above compounds, the following compounds and compositions comprising these compounds are active in an anti-proliferation assay (Perlecan). These compounds and compositions comprising these compounds are, among other things, generally useful for treating cardiovascular disorders associated with proliferative activity. Specifically, these compounds include N^2-cycloheptyl-N^4-(3-fluoro-4-methoxyphenyl)-N^6-methyl-N^6-(1-methyl-piperidin-4-yl)-1,3,5-triazine-2,4,6-triamine, and N^2-cycloheptyl-N^4-methyl-N^4-(1-methyl-piperidin-4-yl)-N^6-naphthalen-2-yl-1,3,5-triazine-2,4,6-triamine.
# Methods for identifying the activity and screening for one or more of these compounds or molecules that induce synthesis of proteoglycans such as HSPG (heparan sulfate proteoglycan) are taught in U.S. patent application Ser. No. 10/091,357, which is incorporated herein in its entirety. Assays of effects of compounds in vivo are also taught in the incorporated references and are known to those skilled in the art. In general, methods comprise the addition of such compounds to assays and measurement of HSPG synthesis including, but not limited to, the production of syndecans, glypicans and perlecans, for example, syndecans 1, 2 and 4; and glypican-1. Other assays that can be used to determine the activity of the compounds of the present invention include other methods for measuring the induction of perlecan synthesis. For example, in one assay, perlecan is induced in cells by certain inducers, and the response is measured. Compounds of the present invention are then added to a replicate assay and the effect on perlecan induction is determined. Using such methods, compounds are determined that can either inhibit perlecan, elevate induction of perlecan, or that have no effect at all. Those compounds that are effective as therapeutic agents can then be used in animals, humans or patients with cellular proliferation disease aspects, such as vascular-associated diseases or SMC proliferation pathologies.
# Another assay for determining compounds having SMC effects comprises adding a composition suspected of affecting SMC proliferation to smooth muscle cells in growth medium or serum-free medium. The change in cell proliferation can be measured by methods known to those skilled in the art, such as incorporation of labeled nucleotides into dividing cells' DNA, and compared to the proliferation of cells which are not treated with the compound. Other measurements include directly determining levels of HSPG synthesis by measuring the amount or change in amount of HSPG such as with ELISA for HSPGs, and compared to the amount of HSPG synthesis in untreated cells. Other indirect or direct measurement are contemplated by the present invention and are known to those skilled in the art. For example, such methods include, but are not limited to, measurement of RNA levels, RT-PCR, Northern blotting, Western blotting promoter-based assays to identify compounds that affect one or more proteoglycans and assays for proteoglycan biological activity shown by recombinant proteins, partially purified proteins, or lysates from cells expressing proteoglycans in the presence or absence of compounds of interest.
# [1] = class of IC50, read-out: Activity (note 1)
# [2] = some cells print no unit, read-out: Avg IC-50
Structure (SMILES),"activity in anti-proliferation assay (Perlecan), in words",IC50 [1],IC50 [2]
"COc1ccc(Nc2nc(NC3CCCCCC3)nc(OCC3CCCN3C)n2)cc1Cl (centres unmarked) [N-(3-Chloro-4-methoxy-phenyl)-N′-cycloheptyl-6-(1-methyl-pyrrolidin-2-ylmethoxy)-[1,3,5]triazine-2,4-diamine]",high activity,,
"COc1cc(OC)c(-c2nc(Nc3ccc(OC)c(Cl)c3)nc(NC3CCCCCC3)n2)c(OC)c1 [N-(3-Chloro-4-methoxy-phenyl)-N′-cycloheptyl-6-(2,4,6-trimethoxy-phenyl)-[1,3,5]triazine-2,4-diamine]",high activity,,
"COc1ccc(-c2nc(Nc3ccc(OC)c(Cl)c3)nc(NC3CCCCCC3)n2)c(OC)c1 [N-(3-Chloro-4-methoxy-phenyl)-N′-cycloheptyl-6-(2,4-dimethoxy-phenyl)-[1,3,5]triazine-2,4-diamine]",high activity,,
"COc1ccc(Nc2nc(NC3CCCCCC3)nc(Sc3c(Cl)cccc3Cl)n2)cc1Cl [N-(3-Chloro-4-methoxy-phenyl)-N′-cycloheptyl-6-(2,6-dichloro-phenylsulfanyl)-[1,3,5]triazine-2,4-diamine]",high activity,,
"COc1ccc(Nc2nc(NC3CCCCCC3)nc(Oc3ccccc3F)n2)cc1Cl [N-(3-Chloro-4-methoxy-phenyl)-N′-cycloheptyl-6-(2-fluoro-phenoxy)-[1,3,5]triazine-2,4-diamine]",high activity,,
"COc1ccc(Nc2nc(NC3CCCCCC3)nc(Oc3ccccc3I)n2)cc1Cl [N-(3-Chloro-4-methoxy-phenyl)-N′-cycloheptyl-6-(2-iodo-phenoxy)-[1,3,5]triazine-2,4-diamine]",high activity,,
"COc1ccc(Nc2nc(NC3CCCCCC3)nc(Sc3ccccc3OC)n2)cc1Cl [N-(3-Chloro-4-methoxy-phenyl)-N′-cycloheptyl-6-(2-methoxy-phenylsulfanyl)-[1,3,5]triazine-2,4-diamine]",high activity,,
"COc1ccc(Nc2nc(NC3CCCCCC3)nc(Sc3ccc(F)cc3)n2)cc1Cl [N-(3-Chloro-4-methoxy-phenyl)-N′-cycloheptyl-6-(4-fluoro-phenylsulfanyl)-[1,3,5]triazine-2,4-diamine]",high activity,,
"COc1ccc(Nc2nc(NC3CCCCCC3)nc(Oc3ccc(I)cc3)n2)cc1Cl [N-(3-Chloro-4-methoxy-phenyl)-N′-cycloheptyl-6-(4-iodo-phenoxy)-[1,3,5]triazine-2,4-diamine]",high activity,,
"COc1ccc(Nc2nc(NC3CCCCCC3)nc(Oc3cccc(C)n3)n2)cc1Cl [N-(3-Chloro-4-methoxy-phenyl)-N′-cycloheptyl-6-(6-methyl-pyridin-2-yloxy)-[1,3,5]triazine-2,4-diamine]",high activity,,
"COc1ccc(Nc2nc(NC3CCCCCC3)nc(Oc3cccnc3)n2)cc1Cl [N-(3-Chloro-4-methoxy-phenyl)-N′-cycloheptyl-6-(pyridin-3-yloxy)-[1,3,5]triazine-2,4-diamine]",high activity,,
"COc1ccc(Nc2nc(NC3CCCCCC3)nc(OCC3CCCO3)n2)cc1Cl (centres unmarked) [N-(3-Chloro-4-methoxy-phenyl)-N′-cycloheptyl-6-(tetrahydro-furan-2-ylmethoxy)-[1,3,5]triazine-2,4-diamine]",high activity,,
"COc1ccc(Nc2nc(NC3CCCCCC3)nc(OCCOc3ccccc3F)n2)cc1Cl [N-(3-Chloro-4-methoxy-phenyl)-N′-cycloheptyl-6-[2-(2-fluoro-phenoxy)-ethoxy]-[1,3,5]triazine-2,4-diamine]",high activity,,
"COc1ccc(Nc2nc(NC3CCCCCC3)nc(OC(C)C)n2)cc1Cl [N-(3-Chloro-4-methoxy-phenyl)-N′-cycloheptyl-6-isopropoxy-[1,3,5]triazine-2,4-diamine]",high activity,,
"COc1ccc(Nc2nc(NC3CCCCCC3)nc(Sc3ccccc3)n2)cc1Cl [N-(3-Chloro-4-methoxy-phenyl)-N′-cycloheptyl-6-phenylsulfanyl-[1,3,5]triazine-2,4-diamine]",high activity,,
"COc1ccc(Nc2nc(NCC3CCCO3)nc(NC3CCCCCC3)n2)cc1Cl (centres unmarked) [N-(3-Chloro-4-methoxy-phenyl)-N′-cycloheptyl-N″-(tetrahydro-furan-2-ylmethyl)-[1,3,5]triazine-2,4,6-triamine]",high activity,,
"COc1ccc(Nc2nc(NC3CCCCCC3)nc(NC3CCNCC3)n2)cc1Cl [N-(3-Chloro-4-methoxy-phenyl)-N′-cycloheptyl-N″-piperidin-4-yl-[1,3,5]triazine-2,4,6-triamine]",high activity,,
"CCN1CCCC1CNc1nc(Nc2ccc(OCc3ccccc3)c(Cl)c2)nc(NC2CCCCCC2)n1 (centres unmarked) [N-(4-Benzyloxy-3-chloro-phenyl)-N′-cycloheptyl-N″-(1-ethyl-pyrrolidin-2-ylmethyl)-[1,3,5]triazine-2,4,6-triamine]",high activity,,
"CCOc1nc(Nc2ccc(OC)c(F)c2)nc(NC2CCCCCC2)n1 [N-Cycloheptyl-6-ethoxy-N′-(3-fluoro-4-methoxy-phenyl)-[1,3,5]triazine-2,4-diamine]",high activity,,
"CCN1CCCC1CNc1nc(Nc2ccc(C)c(F)c2)nc(NC2CCCCCC2)n1 (centres unmarked) [N-Cycloheptyl-N′-(1-ethyl-pyrrolidin-2-ylmethyl)-N″-(3-fluoro-4-methyl-phenyl)-[1,3,5]triazine-2,4,6-triamine]",high activity,,
"Cc1ccc(Nc2nc(NC3CCCCCC3)nc(N(C)C3CCN(C)CC3)n2)cc1F [N-Cycloheptyl-N′-(3-fluoro-4-methyl-phenyl)-N″-methyl-N″-(1-methyl-piperidin-4-yl)-[1,3,5]triazine-2,4,6-triamine]",high activity,,
"CN1CCC(N(C)c2nc(Nc3cccc(F)c3)nc(NC3CCCCCC3)n2)CC1 [N-Cycloheptyl-N′-(3-fluoro-phenyl)-N″-methyl-N″-(1-methyl-piperidin-4-yl)-[1,3,5]triazine-2,4,6-triamine]",high activity,,
"CN1CCC(N(C)c2nc(Nc3cccc([N+](=O)[O-])c3)nc(NC3CCCCCC3)n2)CC1 [N-Cycloheptyl-N′-methyl-N′-(1-methyl-piperidin-4-yl)-N″-(3-nitro-phenyl)-[1,3,5]triazine-2,4,6-triamine]",high activity,,
"COc1ccc(Nc2nc(NC3CCCCCC3)nc(N(C)C3CCN(C)CC3)n2)cc1F [N^2-cycloheptyl-N^4-(3-fluoro-4-methoxyphenyl)-N^6-methyl-N^6-(1-methyl-piperidin-4-yl)-1,3,5-triazine-2,4,6-triamine]",medium or moderate activity,,
"CN1CCC(N(C)c2nc(Nc3ccc4ccccc4c3)nc(NC3CCCCCC3)n2)CC1 [N^2-cycloheptyl-N^4-methyl-N^4-(1-methyl-piperidin-4-yl)-N^6-naphthalen-2-yl-1,3,5-triazine-2,4,6-triamine]",high activity,,
"COc1ccc(Nc2nc(NC3CCCCCC3)nc(OCC3CCCN3C)n2)cc1Cl (centres unmarked) [drawing 575, N-(3-Chloro-4-methoxy-phenyl)-N′-cyclo-heptyl-6-(1-methyl-pyr-rolidin-2-ylmethoxy)-[1,3,5]tri-azine-2,4-diamine]",,3 to 7 µM,5 µM
"COc1ccc(Nc2nc(NC3CCCCCC3)nc(OC3CCN(C)CC3)n2)cc1Cl [drawing 576, N-(3-Chloro-4-methoxy-phenyl)-N′-cyclo-heptyl-6-(1-methyl-piper-idin-4-yloxy)-[1,3,5]triazine-2,4-di-amine]",,3 to 7 µM,5.7 µM

# From patent publication US7335770B2, “Triazine compounds and their analogs, compositions, and methods” (Reddy U5 Therapeutics, Inc., priority 2004, dated 2008)
